Measurements: ChEMBL document CHEMBL6114992, “Design, synthesis, biological evaluation, and mechanism of action of new pyrazines as anticancer agents in vitro and in vivo” (Bioorg Med Chem, 2025)
The source made the active and inactive calls. The calls are words filed in the database; no cut-off is given here.

Key:
THP-1 [1] = assay: Induction of apoptosis in human THP-1 cells assessed as necrotic cells at 0.5 uM incubated for 48 hrs by Annexin V-FITC/PI staining based flow cytometry (reference value: 2.48 %); assay type: functional
SK-OV-3 [2] = assay: Induction of apoptosis in human SK-OV-3 cells assessed as viable cells at 1 uM incubated for 48 hrs by Annexin V-FITC/PI staining based flow cytometry (reference value: 90.97 %); assay type: functional; conditions: read-out: Activity
THP-1 [3] = assay: Induction of apoptosis in human THP-1 cells assessed as early apoptotic cells at 0.5 uM incubated for 48 hrs by Annexin V-FITC/PI staining based flow cytometry (reference value: 0.45 %); assay type: functional
THP-1 [4] = assay: Induction of apoptosis in human THP-1 cells assessed as late apoptotic cells at 2.5 uM incubated for 48 hrs by Annexin V-FITC/PI staining based flow cytometry (reference value: 0.74 %); assay type: functional
[5] = molecular target: Signal transducer and activator of transcription 3 (Homo sapiens) (UniProt P40763); assay: Inhibition of STAT3 phosphorylation in human THP-1 cells at 0.5 to 2.5 uM incubated for 48 hrs by Western blot analysis; assay type: cell-based; conditions: dose 0.5-2.5 µM
Signal transducer and activator of transcription 3 (Homo sapiens), sequence (P40763 whole entry): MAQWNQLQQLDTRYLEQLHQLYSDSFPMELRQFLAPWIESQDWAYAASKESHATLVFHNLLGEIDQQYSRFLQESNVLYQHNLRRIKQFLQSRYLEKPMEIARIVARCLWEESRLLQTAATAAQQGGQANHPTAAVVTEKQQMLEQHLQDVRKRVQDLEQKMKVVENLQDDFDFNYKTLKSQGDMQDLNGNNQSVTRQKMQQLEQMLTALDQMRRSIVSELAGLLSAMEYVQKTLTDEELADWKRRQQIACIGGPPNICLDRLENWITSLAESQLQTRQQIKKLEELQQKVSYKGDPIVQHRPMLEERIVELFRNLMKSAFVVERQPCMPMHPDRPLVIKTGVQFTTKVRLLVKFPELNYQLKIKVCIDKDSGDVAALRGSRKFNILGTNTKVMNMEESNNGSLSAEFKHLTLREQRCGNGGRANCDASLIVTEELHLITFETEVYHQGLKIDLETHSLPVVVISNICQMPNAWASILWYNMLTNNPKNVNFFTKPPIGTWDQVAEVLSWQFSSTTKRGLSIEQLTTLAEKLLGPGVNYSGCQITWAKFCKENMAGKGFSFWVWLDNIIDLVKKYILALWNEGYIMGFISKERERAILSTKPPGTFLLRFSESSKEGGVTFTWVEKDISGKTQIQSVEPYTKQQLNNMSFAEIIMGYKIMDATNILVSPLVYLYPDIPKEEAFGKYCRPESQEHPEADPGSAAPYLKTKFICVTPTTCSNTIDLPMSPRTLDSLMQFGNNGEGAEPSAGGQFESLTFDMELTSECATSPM

THP-1 [6] = assay: Induction of apoptosis in human THP-1 cells assessed as change in mitochondrial membrane potential at 0.5 uM incubated for 48 hrs by JC-1 staining based flow cytometry (reference value: 5.15 %); assay type: functional
SK-OV-3 [7] = assay: Induction of apoptosis in human SK-OV-3 cells assessed as late apoptotic cells at 1 uM incubated for 48 hrs by Annexin V-FITC/PI staining based flow cytometry (reference value: 4.51 %); assay type: functional
THP-1 [8] = assay: Induction of apoptosis in human THP-1 cells assessed as viable cells at 0.5 uM incubated for 48 hrs by Annexin V-FITC/PI staining based flow cytometry (reference value: 96.33 %); assay type: functional; conditions: read-out: Activity
THP-1 [9] = assay: Induction of apoptosis in human THP-1 cells assessed as viable cells at 2.5 uM incubated for 48 hrs by Annexin V-FITC/PI staining based flow cytometry (reference value: 96.33 %); assay type: functional; conditions: read-out: Activity
[10] = Antiproliferative activity against human SK-OV-3/Taxol cells assessed as inhibition of cell growth incubated for 72 hrs by MTT assay; assay type: functional, cell-based; conditions: SK-OV-3, 72 h
SK-OV-3 [11] = assay: Induction of apoptosis in human SK-OV-3 cells assessed as change in mitochondrial membrane potential at 5 uM incubated for 48 hrs by JC-1 staining based flow cytometry (reference value: 5.34 %); assay type: functional
THP-1 [12] = assay: Induction of apoptosis in human THP-1 cells assessed as change in mitochondrial membrane potential at 1 uM incubated for 48 hrs by JC-1 staining based flow cytometry (reference value: 5.15 %); assay type: functional
SK-OV-3 [13] = assay: Antiproliferative activity against human SK-OV-3 cells assessed as inhibition of cell growth incubated for 72 hrs by MTT assay; assay type: functional, cell-based; conditions: SK-OV-3, 72 h
THP-1 [14] = assay: Induction of apoptosis in human THP-1 cells assessed as early apoptotic cells at 2.5 uM incubated for 48 hrs by Annexin V-FITC/PI staining based flow cytometry (reference value: 0.45 %); assay type: functional
SK-OV-3 [15] = assay: Induction of apoptosis in human SK-OV-3 cells assessed as late apoptotic cells at 2.5 uM incubated for 48 hrs by Annexin V-FITC/PI staining based flow cytometry (reference value: 4.51 %); assay type: functional
SK-OV-3 [16] = assay: Downregulation of XIAP expression in human SK-OV-3 cells incubated for 48 hrs by Western blot analysis; assay type: functional, cell-based
SK-OV-3 [17] = assay: Induction of apoptosis in human SK-OV-3 cells assessed as viable cells at 2.5 uM incubated for 48 hrs by Annexin V-FITC/PI staining based flow cytometry (reference value: 90.97 %); assay type: functional; conditions: read-out: Activity
THP-1 [18] = assay: Induction of apoptosis in human THP-1 cells assessed as early apoptotic cells at 1 uM incubated for 48 hrs by Annexin V-FITC/PI staining based flow cytometry (reference value: 0.45 %); assay type: functional
SK-OV-3 [19] = assay: Induction of apoptosis in human SK-OV-3 cells assessed as necrotic cells at 2.5 uM incubated for 48 hrs by Annexin V-FITC/PI staining based flow cytometry (reference value: 4.45 %); assay type: functional
THP-1 [20] = assay: Induction of apoptosis in human THP-1 cells assessed as late apoptotic cells at 1 uM incubated for 48 hrs by Annexin V-FITC/PI staining based flow cytometry (reference value: 0.74 %); assay type: functional
THP-1 [21] = assay: Induction of apoptosis in human THP-1 cells assessed as necrotic cells at 1 uM incubated for 48 hrs by Annexin V-FITC/PI staining based flow cytometry (reference value: 2.48 %); assay type: functional
SK-OV-3 [22] = assay: Induction of apoptosis in human SK-OV-3 cells assessed as early apoptotic cells at 2.5 uM incubated for 48 hrs by Annexin V-FITC/PI staining based flow cytometry (reference value: 0.08 %); assay type: functional
U-937 = assay: Antiproliferative activity against human U-937 cells assessed as inhibition of cell growth incubated for 72 hrs by MTT assay; assay type: functional, cell-based; conditions: U-937, 72 h
THP-1 [23] = assay: Induction of apoptosis in human THP-1 cells assessed as necrotic cells at 2.5 uM incubated for 48 hrs by Annexin V-FITC/PI staining based flow cytometry (reference value: 2.48 %); assay type: functional
KG-1 [24] = assay: Antiproliferative activity against human KG-1 cells assessed as inhibition of cell growth incubated for 72 hrs by MTT assay; assay type: functional, cell-based; conditions: KG-1, 72 h
THP-1 [25] = assay: Induction of apoptosis in human THP-1 cells assessed as viable cells at 1 uM incubated for 48 hrs by Annexin V-FITC/PI staining based flow cytometry (reference value: 96.33 %); assay type: functional; conditions: read-out: Activity
SK-OV-3 [26] = assay: Induction of apoptosis in human SK-OV-3 cells assessed as late apoptotic cells at 5 uM incubated for 48 hrs by Annexin V-FITC/PI staining based flow cytometry (reference value: 4.51 %); assay type: functional
SK-OV-3 [27] = assay: Induction of apoptosis in human SK-OV-3 cells assessed as early apoptotic cells at 5 uM incubated for 48 hrs by Annexin V-FITC/PI staining based flow cytometry (reference value: 0.08 %); assay type: functional
THP-1 [28] = assay: Induction of apoptosis in human THP-1 cells assessed as change in mitochondrial membrane potential at 2.5 uM incubated for 48 hrs by JC-1 staining based flow cytometry (reference value: 5.15 %); assay type: functional
SK-OV-3 [29] = assay: Induction of apoptosis in human SK-OV-3 cells assessed as change in mitochondrial membrane potential at 2.5 uM incubated for 48 hrs by JC-1 staining based flow cytometry (reference value: 5.34 %); assay type: functional
[30] = molecular target: Signal transducer and activator of transcription 3 (Homo sapiens) (UniProt P40763); assay: Inhibition of STAT3 phosphorylation in human KG-1 cells at 0.5 to 2.5 uM incubated for 48 hrs by Western blot analysis; assay type: cell-based; conditions: dose 0.5-2.5 µM
THP-1 [31] = assay: Antiproliferative activity against human THP-1 cells assessed as inhibition of cell growth incubated for 72 hrs by MTT assay; assay type: functional, cell-based; conditions: THP-1, 72 h
KG-1 [32] = assay: Downregulation of XIAP expression in human KG-1 cells incubated for 48 hrs by Western blot analysis; assay type: functional, cell-based; conditions: dose 0.5-2.5 µM
SK-OV-3 [33] = assay: Induction of apoptosis in human SK-OV-3 cells assessed as necrotic cells at 1 uM incubated for 48 hrs by Annexin V-FITC/PI staining based flow cytometry (reference value: 4.45 %); assay type: functional
SK-OV-3 [34] = assay: Induction of apoptosis in human SK-OV-3 cells assessed as change in mitochondrial membrane potential at 1 uM incubated for 48 hrs by JC-1 staining based flow cytometry (reference value: 5.34 %); assay type: functional

Row | SMILES | Activity (THP-1 [1]) | viability at 1 µM (SK-OV-3 [2]) | Activity (THP-1 [3]) | Activity (THP-1 [4]) | inhibition [5] | Activity (THP-1 [6]) | Activity (SK-OV-3 [7]) | viability at 0.5 µM (THP-1 [8]) | viability at 2.5 µM (THP-1 [9]) | IC50 [10] | Activity (SK-OV-3 [11]) | Activity (THP-1 [12]) | IC50 (SK-OV-3 [13]) | Activity (THP-1 [14]) | Activity (SK-OV-3 [15]) | Activity (SK-OV-3 [16]) | viability at 2.5 µM (SK-OV-3 [17]) | Activity (THP-1 [18]) | Activity (SK-OV-3 [19]) | Activity (THP-1 [20]) | further results
1 | CCc1nccnc1C(=O)/C=C/c1ccccn1 | 2.41% | 71.2% | 2.51% | 3.26% | Active | 6.52% | 19.41% | 93.5% | 81.9% | 1240 nM | 31.28% | 9.01% | 1310 nM | 13.09% | 23.46% | Dose-dependent-effect | 67% | 4.75% | 9.16% | 1.73% | Activity (THP-1 [21]): 1.94%; Activity (SK-OV-3 [22]): 0.41%; IC50 (U-937): 690 nM; Activity (THP-1 [23]): 1.77%; IC50 (KG-1 [24]): 630 nM; viability at 1 µM (THP-1 [25]): 91.6%; Activity (SK-OV-3 [26]): 45.06%; Activity (SK-OV-3 [27]): 1.46%; Activity (THP-1 [28]): 26.66%; Activity (SK-OV-3 [29]): 17.88%; inhibition [30]: Active; IC50 (THP-1 [31]): 600 nM; Activity (KG-1 [32]): Dose-dependent-effect; Activity (SK-OV-3 [33]): 8.98%; Activity (SK-OV-3 [34]): 11.51%
2 | Cc1nccnc1C(=O)/C=C/c1cccc(C#N)c1 | 1.78% | 72.4% | 3.41% | 4.82% | Active | 6.42% | 21.04% | 93.3% | 77.8% | 1420 nM | 53.8% | 7.94% | 1390 nM | 15.05% | 26.65% | Dose-dependent-effect | 63.3% | 3.12% | 9.29% | 1.94% | Activity (THP-1 [21]): 2.24%; Activity (SK-OV-3 [22]): 0.77%; IC50 (U-937): 1730 nM; Activity (THP-1 [23]): 2.27%; IC50 (KG-1 [24]): 1790 nM; viability at 1 µM (THP-1 [25]): 92.7%; Activity (SK-OV-3 [26]): 65.66%; Activity (SK-OV-3 [27]): 2.19%; Activity (THP-1 [28]): 29.42%; Activity (SK-OV-3 [29]): 18.87%; inhibition [30]: Active; IC50 (THP-1 [31]): 1520 nM; Activity (KG-1 [32]): Dose-dependent-effect; Activity (SK-OV-3 [33]): 5.49%; Activity (SK-OV-3 [34]): 13.1%
